Source: article PMC10112504, “Novel 4-thiophenyl-pyrazole, pyridine, and pyrimidine derivatives as potential antitumor candidates targeting both EGFR and VEGFR-2; design, synthesis, biological evaluations, and in silico studies” (RSC Advances, 2023)

Legend:
C. albicans = assay: Antifungal activity, inhibition zone approach; type: cell-based, Candida albicans; settings: for C. albicans Diameter of inhibition zone (mm): Fungi; for antimicrobial activity with C. albicans, in words: authors' grading of Table 2 values, key not given; for C. albicans % Activity index: ketoconazole = 100
P. aeuroginosa = assay: Antibacterial activity, inhibition zone approach; type: cell-based, Pseudomonas aeuroginosa; settings: for P. aeuroginosa Diameter of inhibition zone (mm): Gram-negative bacteria; for antimicrobial activity with P. aeuroginosa, in words: authors' grading of Table 2 values, key not given; for P. aeuroginosa % Activity index: gentamicin = 100
A. flavus = assay: Antifungal activity, inhibition zone approach; type: cell-based, Aspergillus flavus; settings: for A. flavus Diameter of inhibition zone (mm): Fungi; for antimicrobial activity with A. flavus, in words: authors' grading of Table 2 values, key not given; for A. flavus % Activity index: ketoconazole = 100
VEGFR-2 = VEGFR-2 (Homo sapiens, UniProt P35968); assay: VEGFR-2 inhibitory activity, homogeneous luminescence release assay; type: biochemical; settings: reference sorafenib; read-out: VEGFR-2 inhibition IC50
Source text: […]. Briefly, these μM inhibitory concentrations recommend greatly the proposed rationale design for the investigated compounds to act as promising dual EGFR/VEGFR-2 inhibitors.

HepG-2 = assay: Anti-proliferative activity, SRB colorimetric assay; type: cell-based; settings: for IC50: Homo sapiens, HepG2, HepG-2 cancer cell line, SRB assay, read-out: Cell lines (IC50 μM) HepG-2; for anti-proliferative activity against HepG-2, in words: authors' grading of Table 1 values, key not given
E. coli = assay: Antibacterial activity, inhibition zone approach; type: cell-based, Escherichia coli; settings: for E. coli Diameter of inhibition zone (mm): Gram-negative bacteria; for antimicrobial activity with E. coli, in words: authors' grading of Table 2 values, key not given; for E. coli % Activity index: gentamicin = 100
S. aureus = assay: Antibacterial activity, inhibition zone approach; type: cell-based, Staphylococcus aureus; settings: for S. aureus Diameter of inhibition zone (mm): Gram-positive bacteria; for antimicrobial activity with S. aureus, in words: authors' grading of Table 2 values, key not given; for S. aureus % Activity index: gentamicin = 100
EGFR = EGFR (Homo sapiens, UniProt P00533); assay: EGFR inhibitory activity, homogeneous luminescence release assay; type: biochemical; settings: reference erlotinib; read-out: EGFR inhibition IC50
B. subtilis = assay: Antibacterial activity, inhibition zone approach; type: cell-based, Bacillus subtilis; settings: for B. subtilis Diameter of inhibition zone (mm): Gram-positive bacteria; for antimicrobial activity with B. subtilis, in words: authors' grading of Table 2 values, key not given; for B. subtilis % Activity index: gentamicin = 100
MCF-7 = assay: Anti-proliferative activity, SRB colorimetric assay; type: cell-based; settings: for IC50: Homo sapiens, MCF7, MCF-7 cancer cell line, SRB assay, read-out: Cell lines (IC50 μM) MCF-7; for anti-proliferative activity against MCF-7, in words: authors' grading of Table 1 values, key not given

VEGFR-2, sequence (P35968 20-1356): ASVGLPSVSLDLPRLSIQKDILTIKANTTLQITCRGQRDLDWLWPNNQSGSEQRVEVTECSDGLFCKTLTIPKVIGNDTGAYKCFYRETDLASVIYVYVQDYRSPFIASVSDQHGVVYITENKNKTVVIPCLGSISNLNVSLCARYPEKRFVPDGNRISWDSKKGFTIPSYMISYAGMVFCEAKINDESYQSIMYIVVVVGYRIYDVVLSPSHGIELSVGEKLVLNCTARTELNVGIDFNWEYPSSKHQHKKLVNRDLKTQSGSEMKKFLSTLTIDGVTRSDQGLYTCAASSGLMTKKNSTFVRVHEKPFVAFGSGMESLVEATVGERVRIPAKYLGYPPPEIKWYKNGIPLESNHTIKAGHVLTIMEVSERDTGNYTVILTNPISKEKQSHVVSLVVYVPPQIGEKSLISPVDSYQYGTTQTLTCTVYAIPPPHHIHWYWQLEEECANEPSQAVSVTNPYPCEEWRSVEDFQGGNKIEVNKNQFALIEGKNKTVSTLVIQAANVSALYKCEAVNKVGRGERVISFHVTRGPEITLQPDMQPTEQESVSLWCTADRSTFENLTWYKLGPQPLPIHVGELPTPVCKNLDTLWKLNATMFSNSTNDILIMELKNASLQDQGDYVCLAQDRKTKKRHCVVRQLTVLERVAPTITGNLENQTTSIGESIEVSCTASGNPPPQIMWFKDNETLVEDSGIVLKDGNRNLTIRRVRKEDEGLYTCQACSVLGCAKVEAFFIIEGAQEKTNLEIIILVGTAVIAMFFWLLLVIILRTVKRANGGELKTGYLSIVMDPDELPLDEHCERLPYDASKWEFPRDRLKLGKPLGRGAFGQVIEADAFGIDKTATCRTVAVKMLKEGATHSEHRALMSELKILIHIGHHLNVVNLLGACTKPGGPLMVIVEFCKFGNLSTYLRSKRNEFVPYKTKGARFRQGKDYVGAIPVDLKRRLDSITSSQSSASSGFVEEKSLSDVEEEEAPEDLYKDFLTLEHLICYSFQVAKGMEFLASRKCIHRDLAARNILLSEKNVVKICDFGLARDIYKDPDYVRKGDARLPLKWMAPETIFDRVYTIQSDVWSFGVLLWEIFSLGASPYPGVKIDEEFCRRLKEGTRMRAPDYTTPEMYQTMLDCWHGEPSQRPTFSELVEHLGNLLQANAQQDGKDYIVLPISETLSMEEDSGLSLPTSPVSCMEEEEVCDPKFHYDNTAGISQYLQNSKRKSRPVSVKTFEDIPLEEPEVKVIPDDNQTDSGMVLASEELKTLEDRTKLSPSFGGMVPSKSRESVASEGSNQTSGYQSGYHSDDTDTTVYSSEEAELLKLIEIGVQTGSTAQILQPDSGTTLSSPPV
EGFR, sequence (P00533 25-1210): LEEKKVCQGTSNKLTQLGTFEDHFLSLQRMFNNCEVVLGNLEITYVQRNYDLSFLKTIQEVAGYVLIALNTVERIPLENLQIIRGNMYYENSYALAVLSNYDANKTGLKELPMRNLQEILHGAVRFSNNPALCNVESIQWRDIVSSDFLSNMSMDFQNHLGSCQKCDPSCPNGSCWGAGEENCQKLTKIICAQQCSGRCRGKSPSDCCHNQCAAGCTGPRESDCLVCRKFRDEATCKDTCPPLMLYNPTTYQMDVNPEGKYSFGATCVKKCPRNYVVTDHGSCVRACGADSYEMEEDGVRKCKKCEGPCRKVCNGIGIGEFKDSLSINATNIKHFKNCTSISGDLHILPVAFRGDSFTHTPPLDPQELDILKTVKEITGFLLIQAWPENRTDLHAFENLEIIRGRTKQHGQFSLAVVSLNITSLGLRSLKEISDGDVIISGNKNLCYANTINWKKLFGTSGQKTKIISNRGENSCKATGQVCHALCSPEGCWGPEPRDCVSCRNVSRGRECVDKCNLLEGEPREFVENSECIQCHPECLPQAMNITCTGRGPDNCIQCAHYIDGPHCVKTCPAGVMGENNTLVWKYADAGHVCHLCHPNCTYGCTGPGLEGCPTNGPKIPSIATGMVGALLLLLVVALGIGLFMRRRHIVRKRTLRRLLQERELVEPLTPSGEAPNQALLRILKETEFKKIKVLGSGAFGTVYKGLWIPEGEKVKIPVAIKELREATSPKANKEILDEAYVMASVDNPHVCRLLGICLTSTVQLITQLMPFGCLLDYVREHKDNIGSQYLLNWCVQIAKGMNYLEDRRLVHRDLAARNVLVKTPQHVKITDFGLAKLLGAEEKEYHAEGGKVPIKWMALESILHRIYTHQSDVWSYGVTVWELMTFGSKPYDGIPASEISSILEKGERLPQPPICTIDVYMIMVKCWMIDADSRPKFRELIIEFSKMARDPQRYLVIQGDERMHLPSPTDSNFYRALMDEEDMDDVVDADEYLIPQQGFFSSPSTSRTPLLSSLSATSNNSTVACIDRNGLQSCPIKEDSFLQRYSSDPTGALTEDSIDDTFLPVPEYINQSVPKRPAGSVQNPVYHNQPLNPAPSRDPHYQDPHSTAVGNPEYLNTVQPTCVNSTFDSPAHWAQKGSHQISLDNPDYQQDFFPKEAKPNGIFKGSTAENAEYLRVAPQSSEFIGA

SMILES | C. albicans Diameter of inhibition zone (mm) (C. albicans) | antimicrobial activity with C. albicans, in words (C. albicans) | C. albicans % Activity index (C. albicans) [%] | P. aeuroginosa Diameter of inhibition zone (mm) (P. aeuroginosa) | antimicrobial activity with P. aeuroginosa, in words (P. aeuroginosa) | P. aeuroginosa % Activity index (P. aeuroginosa) [%] | melting point [°C] | A. flavus Diameter of inhibition zone (mm) (A. flavus) | antimicrobial activity with A. flavus, in words (A. flavus) | A. flavus % Activity index (A. flavus) [%] | IC50 (HepG-2) [µM] | anti-proliferative activity against HepG-2, in words (HepG-2) | E. coli Diameter of inhibition zone (mm) (E. coli) | E. coli % Activity index (E. coli) [%] | S. aureus Diameter of inhibition zone (mm) (S. aureus) | S. aureus % Activity index (S. aureus) [%] | B. subtilis Diameter of inhibition zone (mm) (B. subtilis) | B. subtilis % Activity index (B. subtilis) [%] | IC50 (MCF-7) [µM] | anti-proliferative activity against MCF-7, in words (MCF-7) | also measured
CCOC(=O)CN1N=C(c2ccc(O)cc2)CC1c1cccs1 (centres unmarked) [15a, ethyl 2-(3-(4-hydroxyphenyl)-5-(thiophen-2-yl)-4,5-dihydro-1H-pyrazol-1-yl)acetate] | 18 | strong | 64.3 | 14 | strong | 73.7 | 65 | 15 | moderate | 57.7 | 21.4 ± 1.5 | moderate | 9 | 42.8 | 10 | 55.5 | 15 | 68.2 | 9.48 ± 0.7 | very strong | IC50 (VEGFR-2): 1.14 µM; antimicrobial activity with E. coli, in words (E. coli): moderate; antimicrobial activity with S. aureus, in words (S. aureus): moderate; IC50 (EGFR): 0.894 µM; antimicrobial activity with B. subtilis, in words (B. subtilis): strong
O=C(SC(=S)N1N=C(c2ccc(O)cc2)CC1c1cccs1)c1ccccc1 (centres unmarked) [18a, Benzoic 3-(4-hydroxyphenyl)-5-(thiophen-2-yl)-4,5-dihydro-1H-pyrazole-1-carbothioic thioanhydride] | 20 | very strong | 71.4 | 15 | very strong | 78.9 | 240 | 16 | very strong | 61.5 | 12.9 ± 1 | strong | 10 | 47.6 | 13 | 72.2 | 17 | 77.3 | 6.92 ± 0.5 | very strong | IC50 (VEGFR-2): 0.344 µM; antimicrobial activity with E. coli, in words (E. coli): moderate; antimicrobial activity with S. aureus, in words (S. aureus): very strong; IC50 (EGFR): 0.436 µM; antimicrobial activity with B. subtilis, in words (B. subtilis): very strong
N#Cc1c(N)c2c(-c3cccs3)cc(-c3ccc(O)cc3)nc2[nH]c1=O [6a, 4-amino-7-(4-hydroxyphenyl)-2-oxo-5-(thiophen-2-yl)-1,2-dihydro-1,8-naphthyridine-3-carbonitrile] | 12 | – | 42.8 | 7 | – | 36.8 | 260 | 8 | – | 30.8 | 16.2 ± 1.3 | strong | 4 | 19.0 | 5 | 27.8 | 9 | 40.9 | 19.1 ± 1.6 | strong | IC50 (EGFR): 0.326 µM
Oc1ccc(C2=NNC(c3cccs3)C2)cc1 (centres unmarked) [7a, 4-(5-(thiophen-2-yl)-4,5-dihydro-1H-pyrazol-3-yl)phenol] | 23 | very strong | 82.1 | 17 | very strong | 89.5 | 100 to 102 | 18 | very strong | 69.2 | 8.13 ± 0.6 | very strong | 12 | 57.1 | 15 | 83.3 | 19 | 86.4 | 3.54 ± 0.2 | very strong | IC50 (VEGFR-2): 0.509 µM; antimicrobial activity with E. coli, in words (E. coli): very strong; antimicrobial activity with S. aureus, in words (S. aureus): very strong; IC50 (EGFR): 0.266 µM; antimicrobial activity with B. subtilis, in words (B. subtilis): very strong
N#Cc1c(-c2cccs2)cc(-c2ccc(O)cc2)nc1N [2a, 2-Amino-6-(4-hydroxyphenyl)-4-(thiophen-2-yl)nicotinonitrile] | 18 | strong | 64.3 | 12 | strong | 63.1 | 260 | 12 | moderate | 46.1 | 8.42 ± 0.6 | very strong | 9 | 42.8 | 10 | 55.5 | 15 | 68.2 | 9.59 ± 0.8 | very strong | IC50 (VEGFR-2): 0.195 µM; antimicrobial activity with E. coli, in words (E. coli): moderate; antimicrobial activity with S. aureus, in words (S. aureus): moderate; IC50 (EGFR): 0.209 µM; antimicrobial activity with B. subtilis, in words (B. subtilis): strong
CCOC(=O)CSC(=S)N1N=C(c2ccc(O)cc2)CC1c1cccs1 (centres unmarked) [17a, Ethyl 2-((3-(4-hydroxyphenyl)-5-(thiophen-2-yl)-4,5-dihydro-1H-pyrazole-1-carbonothioyl)thio)acetate] | 10 | weak | 35.7 | 9 | weak | 47.4 | 200 | 8 | weak | 30.8 | 62.4 ± 3.3 | weak | 7 | 33.3 | 6 | 33.3 | 11 | 50.0 | 36.9 ± 2.2 | moderate | antimicrobial activity with E. coli, in words (E. coli): weak; antimicrobial activity with S. aureus, in words (S. aureus): weak; antimicrobial activity with B. subtilis, in words (B. subtilis): weak
CCOC(=O)c1c(-c2cccs2)cc(-c2ccc(O)cc2)[nH]c1=O [4a, Ethyl 6-(4-hydroxyphenyl)-2-oxo-4-(thiophen-2-yl)-1,2-dihydropyridine-3-carboxylate] | 13 | – | 46.4 | 8 | – | 42.1 | 125 | 11 | – | 42.3 | 44.5 ± 2.6 | moderate | 5 | 23.8 | 6 | 33.3 | 10 | 45.4 | 41.2 ± 2.4 | moderate | –
